Publication PMC8258697 (The Journal of Biological Chemistry, 2021)
Changes are numbered by the printed parent chain.

How the values were obtained:
[1] = target: T1, RXRα total mutant LBD (Homo sapiens, UniProt P19793, E453R/F450Y/K284E/V280T/V298T); test: Isothermal titration calorimetry, RXRα total mutant LBD; format: binding; conditions: 25°C
T1 construct: MBP-Asn10-His8-TEV site (N, cleaved yes); made in house; host or cells: E. coli T7 express (co-expressed with GroEL/ES)
T1 sequence (P19793 223-462 V280T/K284E/V298T/F450Y/E453R): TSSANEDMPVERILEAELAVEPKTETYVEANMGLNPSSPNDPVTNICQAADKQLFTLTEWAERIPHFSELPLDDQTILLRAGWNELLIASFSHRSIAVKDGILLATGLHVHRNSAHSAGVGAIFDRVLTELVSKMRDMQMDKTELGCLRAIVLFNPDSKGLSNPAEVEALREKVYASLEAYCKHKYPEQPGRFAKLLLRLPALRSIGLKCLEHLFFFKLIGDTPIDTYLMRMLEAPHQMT
Description: SI method 1: LBD pulldown
In order to verify proper dimer formation capability of the majority of the protein preparation a pulldown experiment was performed. Therefore, small centrifugal filter columns (nylon membrane with […] pore size; VWR) were loaded with 20 µl of Pierce® high capacity streptavidin agarose beads (Thermo Scientific) equilibrated in HTRF buffer [25 mM HEPES pH 7.5, 150 mM KF, 10% (w/v) glycerol, 5 mM DTT (fresh)], then 20 µl of a mixture of biotin coupled RXRα LBD (4 µg) and the respective PPAR LBD (1.4 µg) was applied. After incubation for 10 min at room temperature followed by centrifugation for 2 min and 900 x g the input mixture as well as the flowthrough was analyzed via SDS PAGE. Gels were scanned using an Li-Cor Odyssey imager (LI-COR® Biosciences GmbH, Germany). Missing bands in comparison to the input control were interpreted in two different ways. […]
The heats of dilution resulting from titrating one of the RXRα LBD proteins into the cell containing only buffer were recorded separately and subtracted from the raw ITC data obtained with compound. Data were analyzed using the NanoAnalyze software package (version 3.7.5). […] Free energy change (ΔG) was calculated using the equation […]
and from there the entropy (ΔS) was calculated from […]
µM SR11237. […] The heats of dilution resulting from titrating of protein into buffer were recorded separately and subtracted. […]

[2] = target: T2, PPARγ LBD (Homo sapiens, UniProt P37231); test: Monomer cofactor recruitment HTRF assay: CBP-1 recruitment by isolated sGFP-PPARγ LBD; format: biochemical; conditions: titrated alone, or constant 10 μM against titrated rosiglitazone
T2 construct: His10-tag with TEV site (N, cleaved yes); made in house; host or cells: E. coli T7 express (co-expressed with GroEL/ES)
T2 sequence (P37231 234-505): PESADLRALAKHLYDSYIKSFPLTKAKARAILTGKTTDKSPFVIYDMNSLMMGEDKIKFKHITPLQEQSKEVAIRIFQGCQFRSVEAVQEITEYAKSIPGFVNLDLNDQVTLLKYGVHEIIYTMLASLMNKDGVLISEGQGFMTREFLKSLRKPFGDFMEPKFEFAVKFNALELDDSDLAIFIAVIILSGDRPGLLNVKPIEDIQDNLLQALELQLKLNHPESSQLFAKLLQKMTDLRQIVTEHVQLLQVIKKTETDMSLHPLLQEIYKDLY

[3] = target: T3, Gal4-RXRα wildtype (Homo sapiens, UniProt P19793); test: Gal4-RXRα wildtype / VP16-SRC1-2 hybrid reporter gene assay in HEK293T cells; conditions: Gal4-RXRα with VP16-SRC1
T3 sequence (P19793 225-462): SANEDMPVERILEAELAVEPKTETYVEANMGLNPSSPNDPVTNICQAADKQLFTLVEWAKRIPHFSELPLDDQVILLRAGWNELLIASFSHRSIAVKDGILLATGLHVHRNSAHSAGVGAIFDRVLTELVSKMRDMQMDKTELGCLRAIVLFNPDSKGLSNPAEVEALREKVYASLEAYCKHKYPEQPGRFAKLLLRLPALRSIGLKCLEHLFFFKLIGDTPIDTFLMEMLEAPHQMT
T3 sequence (Q15788 676-701 C676S partner): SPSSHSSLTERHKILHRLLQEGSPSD

[4] = target: T4, PPARγ:RXRα heterodimer (Homo sapiens, UniProt P19793+P37231); test: PPARγ:RXRα heterodimer formation HTRF assay, sGFP-RXRα LBD titrated against biotinylated PPARγ LBD coupled to Tb-SA; format: binding; conditions: 10 μM ligand compared with no ligand
T4 construct: His10-tag with TEV site (N, cleaved yes); made in house; host or cells: E. coli T7 express (co-expressed with GroEL/ES)
T4 sequence (P37231 234-505): T2 sequence (P37231 234-505)
T4 sequence (P19793 226-462): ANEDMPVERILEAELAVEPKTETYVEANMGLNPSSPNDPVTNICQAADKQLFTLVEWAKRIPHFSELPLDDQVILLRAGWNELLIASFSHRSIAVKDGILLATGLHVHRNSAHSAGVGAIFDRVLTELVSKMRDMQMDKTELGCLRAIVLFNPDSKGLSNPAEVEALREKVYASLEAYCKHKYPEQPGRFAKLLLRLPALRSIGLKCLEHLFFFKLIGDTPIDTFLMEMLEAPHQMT

[5] = target: T5, RXRα LBD mutant (Homo sapiens, UniProt P19793, E453R/F450Y/K284E/V280T/V298T); test: NCOR1 corepressor displacement HTRF assay on sGFP-RXRα mutant LBD; format: biochemical; conditions: 100 nM sGFP-RXRα mutant LBD, 12 nM NCOR1 ID2
T5 construct: His10-tag with TEV site (N, cleaved yes); made in house; host or cells: E. coli T7 express (co-expressed with GroEL/ES)
T5 sequence (P19793 226-462 V280T/K284E/V298T/F450Y/E453R): T4 sequence (P19793 226-462) with V55T, K59E, V73T, F225Y, E228R

[6] = target: T6, RXRα LBD total mutant (Homo sapiens, UniProt P19793, E453R/F450Y/K284E/V280T/V298T); test: Coactivator recruitment HTRF assay on isolated RXRα LBD total mutant (SRC1-2 peptide); format: biochemical; conditions: 100 nM sGFP-RXRα LBD total mutant
T6 construct: His10-tag with TEV site (N, cleaved yes); made in house; host or cells: E. coli T7 express (co-expressed with GroEL/ES)
T6 sequence (P19793 226-462 V280T/K284E/V298T/F450Y/E453R): T4 sequence (P19793 226-462) with V55T, K59E, V73T, F225Y, E228R

## CC1(C)CCC(C)(C)c2cc(C3(c4ccc(C(=O)O)cc4)OCCO3)ccc21 [SR11237]
[1]
  binding affinity (ITC): comparable affinity
[2]
  effect on CBP-1 recruitment by isolated PPARγ LBD: neither activated recruitment of CBP-1 by PPARγ nor impaired rosiglitazone-mediated recruitment
[3]
  transactivation of reporter gene expression: substantial increase in transactivation
[4]
  effect on PPARγ:RXRα heterodimer formation: significant stabilizing effect
[5]
  effect on NCOR1 corepressor binding: Agonist dependent displacement of NCOR1
[6]
  stimulation of SRC1-2 coactivator recruitment: no stimulation of coactivator recruitment was observed
